# Several values for one entry are separate records, joined by “and”; a condition that tells them apart may be missing. Equal values may be shown once. Activity calls are given as the source filed them.
# Tests used:
# [1] = viability loss in CEM21 cells – cell-based, plate reader, dry powder, cytotoxicity control, dose response (AID 687026); assay type: functional
# [2] = inhibition of Env-driven cell fusion – HIV entry, plate reader, dry powder, dose response (AID 687023); assay type: functional, cell-based
# [3] = HIV-1 AD8 envelope cell-cell fusion blockers – cherry-pick, dose response (AID 652062); assay type: functional, cell-based;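 note: luciferase signal from cell-cell fusion driven by HIV-1 clade B AD8 Env; potency is for inhibitors of fusion seen as a drop in luminescence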
# HEK293 [4] = test: cells; assay type: functional, cell-based; conditions: Homo sapiens
# [5] = blockers of HIV-1 ZM109 envelope-driven cell-cell fusion – HeLa effector, CEM target cells, luciferase, cherry-pick, dose response (AID 652058); assay type: functional, cell-based;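 note: luciferase signal from HIV-1 Env mediated cell-cell fusion of effector and target cells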
# [6] = molecular target: Nucleotide-binding oligomerization domain-containing protein 2 (Homo sapiens, UniProt Q9HC29); test: inhibition of NOD2-driven NF-kB reporter – cell-based, luminescence, uHTS, HEK293 (AID 1566); assay type: functional
# HEK293 [7] = test: NOD2 signaling inhibitors in MDP-stimulated cells, cell-based, uHTS, luminescence (AID 2001); assay type: functional; conditions: Homo sapiens
# HEK293 [8] = test: cells; assay type: functional, cell-based; conditions: Homo sapiens; remark: listed apart in the source
# HEK293 [9] = test: inhibition of NOD1-driven NF-kB reporter – cell-based, luminescence, uHTS, primary screen (AID 1578); assay type: functional; conditions: Homo sapiens
# [10] = blockers of HIV-1 envelope-mediated cell-cell fusion – cherry-pick, dose response (AID 652057); assay type: functional, cell-based
# [11] = off-target signal loss in HeLa-CEM21 co-culture – HeLa F-luc CTL cells, cherry-picked, counter-screen for HIV-1 Env fusion inhibitor project, dose response (AID 652040); assay type: functional, cell-based;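 note: potency for signal decrease marking cytotoxic or nonspecific inhibition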
# Estrogen receptor = molecular target: T1, Estrogen receptor (Homo sapiens, UniProt P03372);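 note: potency for inhibiting coactivator peptide recruitment to the receptor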
# T1 sequence (P03372 whole entry): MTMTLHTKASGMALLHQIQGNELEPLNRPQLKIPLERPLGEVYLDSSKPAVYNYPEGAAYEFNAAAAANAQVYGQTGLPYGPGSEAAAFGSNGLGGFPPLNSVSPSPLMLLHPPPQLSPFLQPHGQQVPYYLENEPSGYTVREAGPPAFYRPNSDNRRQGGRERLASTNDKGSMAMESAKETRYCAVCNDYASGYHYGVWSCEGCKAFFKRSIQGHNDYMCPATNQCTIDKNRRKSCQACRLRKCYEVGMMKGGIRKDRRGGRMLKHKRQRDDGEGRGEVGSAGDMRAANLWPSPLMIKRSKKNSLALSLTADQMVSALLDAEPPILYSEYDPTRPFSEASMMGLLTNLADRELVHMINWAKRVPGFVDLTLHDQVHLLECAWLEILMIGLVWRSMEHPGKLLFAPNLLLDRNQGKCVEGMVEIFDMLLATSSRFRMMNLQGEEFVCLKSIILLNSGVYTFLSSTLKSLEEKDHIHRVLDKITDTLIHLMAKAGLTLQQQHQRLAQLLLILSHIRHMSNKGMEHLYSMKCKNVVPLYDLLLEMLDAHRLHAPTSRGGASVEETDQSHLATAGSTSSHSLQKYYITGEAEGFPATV
# HEK293 [12] = test: cells; assay type: functional, cell-based; conditions: Homo sapiens; remark: listed apart in the source
# [13] = molecular target: Potassium channel subfamily K member 3 (Rattus norvegicus, UniProt O54912); test: SAR analysis for the identification of selective inhibitors of the two-pore domain potassium channel TASK1(KCNK3):Automated Electrophysiology.; assay type: functional
# [14] = molecular target: Potassium channel subfamily K member 3 (Homo sapiens, UniProt O14649); test: inhibition of human KCNK3 channel flux – CHO cells, FluxOR thallium flux, SAR follow-up (AID 652212); assay type: functional
# [15] = molecular target: T2, Potassium channel subfamily K member 9 (Homo sapiens, UniProt Q9NPC2); test: TASK3 channel blockers, electrophysiology – cell-based, automated electrophysiology, selectivity assay for TASK1 (KCNK3) inhibitor project, SAR follow-up (AID 652210); assay type: functional
# [16] = molecular target: T2, Potassium channel subfamily K member 9; test: KCNK9 flux blockade, concentration-response – cell-based, FluxOR thallium flux, selectivity assay for TASK1 inhibitor project, SAR follow-up (AID 652211); assay type: functional;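 note: potency is for inhibitors of the channel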
# [17] = molecular target: Potassium voltage-gated channel subfamily KQT member 2 (Rattus norvegicus, UniProt O88943); test: block of rat KCNQ2 potassium channel – cell-based, FluxOR thallium flux, concentration-response, selectivity assay for TASK1 inhibitor project, SAR follow-up (AID 652192); assay type: functional
# [18] = viability loss in HEK293T cells – cell-based, CellTiter-Glo luminescence, dry powder, set 6, cytotoxicity control, dose response (AID 651949); assay type: functional; conditions: HEK293
# [19] = toxicity toward immortalized ovarian surface epithelium – cell-based, plate reader, dry powder samples, cytotoxicity control for PAX8 inhibitor project, dose response (AID 743045); assay type: functional
# [20] = OVCAR8 cell viability loss – plate reader, dry powder samples, PAX8 project, dose response (AID 743197); assay type: functional, cell-based; conditions: OVCAR-8
# [21] = IGROV1 cell killing – plate reader, dry powder samples, PAX8 inhibitor project, dose response (AID 743043); assay type: functional, cell-based; conditions: IGROV-1
# Paired box protein Pax-8 = Paired box protein Pax-8 (Homo sapiens, UniProt Q06710); test: PAX8 transcriptional activity inhibition in RMG-I – RMG-I cells, luciferase, cherry-pick, dose response (AID 687027); assay type: functional, cell-based;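 note: luciferase reporter driven by Pax8 target thyroperoxidase promoter measured by SteadyGlo luminescence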
# [22] = OVCAR-3 cell viability loss – plate reader, dry powder samples, PAX8 inhibitor project, dose response (AID 743044); assay type: functional, cell-based
# [23] = HEK293 cell viability loss – cherry-picked samples, cytotoxicity control, dose response (AID 1053185); assay type: functional, cell-based
# [24] = HepG2 cell viability loss – cherry-picked samples, cytotoxicity control, dose response (AID 1053183); assay type: functional, cell-based
# [25] = reduced cellular PGC1a acetyl-lysine signal – cell-based, cherry-picked samples, dose response (AID 720514); assay type: functional;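 note: potency may reflect raised or lowered acetylation signal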
# [26] = A549 cell viability loss – cherry-picked samples, cytotoxicity control, dose response (AID 1053184); assay type: functional, cell-based
# [27] = molecular target: NAD-dependent protein deacylase sirtuin-5, mitochondrial (Homo sapiens, UniProt Q9NXA8); test: sirtuin-5 deacylation blockers, concentration series – biochemical, fluorescence imaging, cherry-pick, set 5, dose response (AID 720591);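 note: desuccinylation of succinyl peptide AMC substrate read as fluorescence after trypsin release; potency of inhibitors that lower fluorescence and may act on trypsin instead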
# [28] = CTGF mRNA reduction in DLD1 cells – cell-based, DLD1 colon cancer, RT-qPCR, cherry-pick, dose response (AID 1053122); assay type: functional; conditions: Cancer cell lines
# T2 sequence (Q9NPC2 whole entry): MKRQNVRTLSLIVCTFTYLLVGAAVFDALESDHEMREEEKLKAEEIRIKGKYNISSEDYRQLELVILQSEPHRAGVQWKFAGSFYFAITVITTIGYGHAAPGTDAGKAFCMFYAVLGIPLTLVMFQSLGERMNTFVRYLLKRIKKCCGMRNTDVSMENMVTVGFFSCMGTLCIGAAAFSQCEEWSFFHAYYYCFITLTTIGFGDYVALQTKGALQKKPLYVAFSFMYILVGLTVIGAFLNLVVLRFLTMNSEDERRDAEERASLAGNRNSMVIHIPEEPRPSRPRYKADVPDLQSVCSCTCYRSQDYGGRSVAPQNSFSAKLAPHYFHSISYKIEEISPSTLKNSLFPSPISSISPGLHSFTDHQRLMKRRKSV
# Potassium channel subfamily K member 3 (Rattus norvegicus, UniProt O54912), sequence (O54912 whole entry, the tested form may be a part): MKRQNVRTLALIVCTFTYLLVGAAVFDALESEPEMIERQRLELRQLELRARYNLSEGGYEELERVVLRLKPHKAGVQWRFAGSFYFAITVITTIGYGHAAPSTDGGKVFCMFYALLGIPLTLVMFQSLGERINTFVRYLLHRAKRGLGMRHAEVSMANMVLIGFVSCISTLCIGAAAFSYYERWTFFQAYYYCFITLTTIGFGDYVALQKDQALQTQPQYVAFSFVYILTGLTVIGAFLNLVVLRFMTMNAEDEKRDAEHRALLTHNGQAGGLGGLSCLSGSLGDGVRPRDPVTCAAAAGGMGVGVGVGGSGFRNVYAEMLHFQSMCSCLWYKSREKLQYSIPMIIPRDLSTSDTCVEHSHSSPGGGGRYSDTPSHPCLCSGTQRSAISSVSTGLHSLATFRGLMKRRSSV
# NAD-dependent protein deacylase sirtuin-5, mitochondrial, sequence (Q9NXA8 whole entry): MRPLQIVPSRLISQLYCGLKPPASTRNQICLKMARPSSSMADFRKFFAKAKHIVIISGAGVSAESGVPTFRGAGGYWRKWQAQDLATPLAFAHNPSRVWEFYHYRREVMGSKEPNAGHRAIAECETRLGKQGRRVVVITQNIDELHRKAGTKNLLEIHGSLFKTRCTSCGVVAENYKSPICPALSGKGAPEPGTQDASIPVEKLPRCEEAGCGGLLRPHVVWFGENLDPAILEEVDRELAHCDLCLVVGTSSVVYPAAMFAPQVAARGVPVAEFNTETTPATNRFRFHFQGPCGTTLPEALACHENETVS
# Nucleotide-binding oligomerization domain-containing protein 2, sequence (Q9HC29 whole entry, the tested form may be a part): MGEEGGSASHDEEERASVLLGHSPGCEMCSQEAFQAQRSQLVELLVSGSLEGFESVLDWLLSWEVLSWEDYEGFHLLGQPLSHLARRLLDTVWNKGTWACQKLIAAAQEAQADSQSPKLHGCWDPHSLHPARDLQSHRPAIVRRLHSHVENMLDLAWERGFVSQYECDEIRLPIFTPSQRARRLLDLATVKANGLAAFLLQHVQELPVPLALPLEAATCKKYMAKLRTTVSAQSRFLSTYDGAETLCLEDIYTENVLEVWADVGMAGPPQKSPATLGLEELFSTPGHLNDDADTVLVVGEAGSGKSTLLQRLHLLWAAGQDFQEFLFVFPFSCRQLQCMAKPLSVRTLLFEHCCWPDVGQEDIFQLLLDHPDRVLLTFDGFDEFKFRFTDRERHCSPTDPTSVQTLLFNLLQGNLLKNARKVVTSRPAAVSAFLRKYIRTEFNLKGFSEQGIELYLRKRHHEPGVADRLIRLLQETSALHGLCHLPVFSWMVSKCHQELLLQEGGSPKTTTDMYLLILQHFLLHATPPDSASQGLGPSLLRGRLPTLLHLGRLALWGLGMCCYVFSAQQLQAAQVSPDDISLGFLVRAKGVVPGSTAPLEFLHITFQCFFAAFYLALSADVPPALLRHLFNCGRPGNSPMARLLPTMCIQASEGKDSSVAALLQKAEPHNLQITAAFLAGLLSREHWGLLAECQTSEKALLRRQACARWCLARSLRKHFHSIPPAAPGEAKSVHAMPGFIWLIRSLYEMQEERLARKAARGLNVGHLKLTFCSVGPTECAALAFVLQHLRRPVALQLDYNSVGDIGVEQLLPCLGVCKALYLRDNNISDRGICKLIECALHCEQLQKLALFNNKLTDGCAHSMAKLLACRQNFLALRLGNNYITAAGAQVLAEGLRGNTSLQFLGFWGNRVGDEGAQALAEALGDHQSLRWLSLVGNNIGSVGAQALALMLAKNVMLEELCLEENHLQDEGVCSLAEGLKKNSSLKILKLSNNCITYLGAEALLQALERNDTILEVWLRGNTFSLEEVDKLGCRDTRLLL
# Paired box protein Pax-8, sequence (Q06710 whole entry): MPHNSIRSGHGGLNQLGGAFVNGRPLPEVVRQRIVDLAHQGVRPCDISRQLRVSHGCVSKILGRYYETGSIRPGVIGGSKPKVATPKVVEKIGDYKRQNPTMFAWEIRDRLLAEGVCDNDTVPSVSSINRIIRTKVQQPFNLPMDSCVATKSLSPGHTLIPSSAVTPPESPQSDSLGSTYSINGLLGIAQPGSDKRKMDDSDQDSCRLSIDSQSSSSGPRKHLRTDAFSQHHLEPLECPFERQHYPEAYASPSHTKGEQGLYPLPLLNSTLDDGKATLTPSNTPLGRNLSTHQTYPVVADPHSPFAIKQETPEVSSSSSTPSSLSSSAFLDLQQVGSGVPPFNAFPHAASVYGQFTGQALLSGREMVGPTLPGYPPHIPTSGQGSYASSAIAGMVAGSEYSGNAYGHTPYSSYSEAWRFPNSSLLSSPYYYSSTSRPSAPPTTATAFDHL
# Potassium channel subfamily K member 3 (Homo sapiens, UniProt O14649), sequence (O14649 whole entry): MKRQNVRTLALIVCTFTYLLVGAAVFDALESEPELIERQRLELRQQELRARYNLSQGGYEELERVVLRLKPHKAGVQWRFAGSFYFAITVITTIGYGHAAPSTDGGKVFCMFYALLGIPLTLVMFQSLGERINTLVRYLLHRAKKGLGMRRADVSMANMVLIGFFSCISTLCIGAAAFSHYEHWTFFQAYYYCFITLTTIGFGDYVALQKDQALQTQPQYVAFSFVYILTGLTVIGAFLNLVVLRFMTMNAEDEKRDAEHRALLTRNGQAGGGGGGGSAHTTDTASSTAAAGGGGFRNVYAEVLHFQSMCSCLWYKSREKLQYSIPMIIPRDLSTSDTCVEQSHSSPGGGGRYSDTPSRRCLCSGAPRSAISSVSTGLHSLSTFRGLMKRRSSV
# Potassium voltage-gated channel subfamily KQT member 2, sequence (O88943 whole entry): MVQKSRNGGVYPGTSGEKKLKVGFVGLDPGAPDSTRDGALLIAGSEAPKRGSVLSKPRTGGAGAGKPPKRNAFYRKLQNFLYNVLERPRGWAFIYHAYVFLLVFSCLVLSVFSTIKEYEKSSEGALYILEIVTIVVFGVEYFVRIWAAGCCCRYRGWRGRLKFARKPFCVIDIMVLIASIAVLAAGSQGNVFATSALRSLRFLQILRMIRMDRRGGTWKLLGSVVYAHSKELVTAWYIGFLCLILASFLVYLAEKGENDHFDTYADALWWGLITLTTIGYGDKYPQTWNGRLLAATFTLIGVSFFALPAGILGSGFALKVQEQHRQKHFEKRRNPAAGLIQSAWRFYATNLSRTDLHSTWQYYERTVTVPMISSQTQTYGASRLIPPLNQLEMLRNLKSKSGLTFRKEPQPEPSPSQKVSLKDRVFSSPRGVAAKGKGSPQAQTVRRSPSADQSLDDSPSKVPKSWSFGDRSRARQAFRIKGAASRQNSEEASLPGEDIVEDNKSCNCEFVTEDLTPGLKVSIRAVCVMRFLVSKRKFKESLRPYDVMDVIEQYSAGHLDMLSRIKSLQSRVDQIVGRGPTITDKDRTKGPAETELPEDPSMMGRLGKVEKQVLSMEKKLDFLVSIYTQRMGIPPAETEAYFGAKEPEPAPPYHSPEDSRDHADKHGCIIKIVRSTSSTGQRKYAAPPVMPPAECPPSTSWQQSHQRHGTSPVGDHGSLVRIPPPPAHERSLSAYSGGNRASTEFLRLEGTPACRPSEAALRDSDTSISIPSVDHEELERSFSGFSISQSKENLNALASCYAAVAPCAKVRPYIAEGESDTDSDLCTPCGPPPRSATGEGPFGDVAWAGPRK
compound,measurement,setting,value
O=C(CCCn1c(=S)[nH]c2cc3c(cc2c1=O)OCO3)N1CCN(c2ccc(Cl)cc2)CC1,AC50,[1],> 70 µM (inactive)
same,AC50,[2],5.71 µM (active) and 5.84 µM (active)
same,AC50,[3],7.01 µM (active)
same,IC50,HEK293 [4],8.75 µM (active)
same,AC50,[5],5.45 µM (active)
same,EC50,[6],3.83 µM (active)
same,IC50,HEK293 [7],6.5 µM (active)
same,IC50,HEK293 [8],> 20 µM (inactive)
same,EC50,HEK293 [9],7.73 µM (active)
same,AC50,[10],2.75 µM (active)
same,AC50,[11],44.3 µM (active)
same,IC50,Estrogen receptor,12.6 µM (active)
same,IC50,HEK293 [12],16.4 µM (active)
CCOc1ccccc1C(=O)Nc1cccc(NC(=O)c2cccc(C)c2)c1,IC50,[13],0.011 µM (active)
same,IC50,[14],0.01 µM (active)
same,IC50,[15],0.38 µM (active)
same,IC50,[16],0.44 µM (active)
same,IC50,[17],1.88 µM (active)
CS(=O)(=O)c1cccc(-c2nnc(SCc3ccccc3)o2)c1,AC50,[18],> 52 µM (inactive)
Cc1ccc(S(=O)(=O)Nc2ccc3c(c2)C(=O)N([C@H](C)CO)C[C@H](C)[C@@H](CN(C)Cc2ccc(C(F)(F)F)cc2)OCCCC[C@H](C)O3)cc1,AC50,[19],18.1 µM (active)
same,AC50,[20],16.6 µM (active)
same,AC50,[21],15 µM (active)
same,AC50,Paired box protein Pax-8,4.62 µM (active)
same,AC50,[22],10.3 µM (active)
Cc1cccc(-c2ccc([C@@H]3[C@@H]4CN(Cc5cccc(F)c5)C[C@H]3N4)cc2)c1,AC50,[23],27.1 µM (active)
same,AC50,[24],17.7 µM (active)
same,AC50,[25],20.4 µM (active)
same,AC50,[26],35.4 µM (active)
COc1ccc(-n2c(/C=C/c3ccc4c(c3)OCO4)nc3ccccc3c2=O)cc1,AC50,[27],> 30 µM (inactive)
CO[C@@H](CN(C)S(=O)(=O)c1ccc(C)cc1)[C@@H](C)CN([C@H](C)CO)S(=O)(=O)c1cccc(Cl)c1,AC50,[28],18.6 µM (active)

# Reference: ChEMBL document CHEMBL1201862, “PubChem BioAssay data set” (2004)
